In US12336981B2, “Compounds and compositions for the inhibition of NAMPT” (Valo Health, Inc., priority 2010, dated 2025) one finds IC50 data, which are given here for 42 molecules.

pIC50: −log10 of the molar value. Read-outs that look alike come from different tables or passages of the source.

The subject of one assay is A2780 cells. Description: In-vitro cell proliferation assay (SRB), A2780 cells. The class given is cell-based. The conditions noted are these: Homo sapiens, A2780, 72 h, A2780 cells, 72 hours, read-out: A2780 IC50. In short, it runs like this:
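Cells were plated overnight at 37° C., 5% CO2, then exposed to serially diluted compounds (0.1% DMSO final) for 72 hours. Viable cells were measured by sulforhodamine B staining after TCA fixation, read at 570 nm; media-only background was subtracted before % inhibition was calculated.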

In another assay the target is T1, NAMPT (Homo sapiens, UniProt P43490).
T1 construct: His tag; host or cells: E. coli
Put plainly: Biochemical inhibition assay: NAMPT enzymatic reaction, NMN quantified by mass spectrometry. The following applies: read-out: Biochem IC50. In short, it runs like this:
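Inhibition of E. coli-expressed His-tagged human NAMPT, measured as NMN formation by mass spectrometry after a 30 min room-temperature reaction containing 1 μM NAM, 100 μM PRPP and 2.5 mM ATP.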

T1 sequence (P43490 whole entry): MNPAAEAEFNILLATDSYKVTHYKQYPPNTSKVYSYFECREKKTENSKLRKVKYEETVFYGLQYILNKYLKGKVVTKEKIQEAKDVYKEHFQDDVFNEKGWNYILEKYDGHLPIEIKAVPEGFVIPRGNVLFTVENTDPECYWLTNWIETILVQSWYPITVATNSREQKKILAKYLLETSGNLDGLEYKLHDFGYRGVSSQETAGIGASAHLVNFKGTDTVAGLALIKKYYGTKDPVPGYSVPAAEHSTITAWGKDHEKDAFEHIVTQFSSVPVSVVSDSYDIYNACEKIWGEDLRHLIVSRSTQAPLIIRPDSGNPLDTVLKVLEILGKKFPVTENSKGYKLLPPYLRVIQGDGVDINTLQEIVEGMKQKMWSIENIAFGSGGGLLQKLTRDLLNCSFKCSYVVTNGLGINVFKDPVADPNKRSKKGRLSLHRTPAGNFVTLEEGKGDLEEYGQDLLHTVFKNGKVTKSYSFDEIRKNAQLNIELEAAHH

Turning to `O=C(NCc1ccc(S(=O)(=O)c2cccc(-c3ccccc3)c2)cc1)c1cc2ccncc2s1`, the pIC50 (as a rule, the IC50 on a negative log10 scale, so that one unit is a factor of ten) in the assay on A2780 cells (SRB) is 8.00; at NAMPT (NAMPT enzymatic reaction), 8.35.

`COc1c(Cl)ccc(S(=O)(=O)c2ccc(CNC(=O)c3cc4ccncc4o3)cc2)c1Cl`: the pIC50 in the assay on A2780 cells (SRB) is 7.79; on NAMPT (NAMPT enzymatic reaction) it was 7.75.

As to `O=C(Nc1ccc(S(=O)(=O)c2ccccc2)cc1)c1cccnc1` [N-[4-(benzenesulfonyl)phenyl]pyridine-3-carboxamide], the pIC50 in the assay with A2780 cells (SRB assay) is less than 4.52; at NAMPT (NAMPT enzymatic reaction) it was 4.92.

In the case of `CN(C)c1ccc(S(=O)(=O)c2ccc(CNC(=O)c3cnc4nccn4c3)cc2)cn1` [N-({4-[6-(dimethylamino)pyridine-3-sulfonyl]phenyl}methyl)imidazo[1,2-a]pyrimidine-6-carboxamide], the pIC50 in the assay with A2780 cells (SRB) is 8.23; on NAMPT (NAMPT enzymatic assay) it was 8.57.

In the case of `CCN(CC)C(=O)c1cc(Cl)cc(S(=O)(=O)c2ccc(CNC(=O)c3cc4ccncc4o3)cc2)c1` [N-[(4-{[3-chloro-5-(diethylcarbamoyl)benzene]sulfonyl}phenyl)methyl]furo[2,3-c]pyridine-2-carboxamide], the pIC50 in the assay on A2780 cells (SRB) was 8.77; at NAMPT (NAMPT enzymatic assay), 8.08.

In the case of `CCN(C)c1ncc(S(=O)(=O)c2ccc(CNC(=O)c3ccc4nccn4c3)cc2)s1` [N-[(4-{2-[ethyl(methyl)amino]-1,3-thiazole-5-sulfonyl}phenyl)methyl]imidazo[1,2-a]pyridine-6-carboxamide], the pIC50 is 9.40 with A2780 cells (SRB) and 8.48 at NAMPT (NAMPT enzymatic assay).

For the molecule `O=C(NCc1ccc(S(=O)(=O)c2ccc(Cl)c(Cl)c2)cc1)c1cnc2[nH]ncc2c1` [N-({4-[(3,4-dichlorobenzene)sulfonyl]phenyl}methyl)-1H-pyrazolo[3,4-b]pyridine-5-carboxamide], the pIC50 was 8.26 with A2780 cells (SRB) and 8.17 on NAMPT (NAMPT enzymatic reaction).

For the molecule `Cc1cncc(S(=O)(=O)c2ccc(CNC(=O)c3cnc4nccn4c3)cc2)n1` [N-{[4-(6-methylpyrazine-2-sulfonyl)phenyl]methyl}imidazo[1,2-a]pyrimidine-6-carboxamide], the pIC50 with A2780 cells (SRB) is 7.28; on NAMPT (NAMPT enzymatic assay), 9.00.

Turning to `Cn1c(C(=O)NCc2ccc(S(=O)(=O)c3ccccc3)cc2)cc2cnccc21` [N-{[4-(benzenesulfonyl)phenyl]methyl}-1-methyl-1H-pyrrolo[3,2-c]pyridine-2-carboxamide], the pIC50 was less than 4.52 in the assay with A2780 cells (SRB assay) and less than 5.00 at NAMPT (NAMPT enzymatic reaction).

Take `O=C(NCc1ccc(S(=O)(=O)c2cncc(Cl)c2)cc1)c1cnc2[nH]ncc2c1` [N-{[4-(5-chloropyridine-3-sulfonyl)phenyl]methyl}-1H-pyrazolo[3,4-b]pyridine-5-carboxamide]: the pIC50 is 8.21 with A2780 cells (SRB) and 7.62 at NAMPT (NAMPT enzymatic assay).

For `CCCCOc1ccc(Cl)cc1S(=O)(=O)c1ccc(CNC(=O)c2cc3ccncc3s2)cc1`, the pIC50 in the assay on A2780 cells (SRB) was 8.00; at NAMPT (NAMPT enzymatic reaction), 8.14.

In the case of `Cc1cc(Cl)cnc1S(=O)(=O)c1ccc(CNC(=O)c2cc3ccncc3o2)cc1` [N-{[4-(5-chloro-3-methylpyridine-2-sulfonyl)phenyl]methyl}furo[2,3-c]pyridine-2-carboxamide], the pIC50 in the assay on A2780 cells (SRB) was 7.78; at NAMPT (NAMPT enzymatic assay), 8.00.

For `O=C(NCc1ccc(S(=O)(=O)c2cccc(N3CCOCC3)c2)cc1)c1cnc2nccn2c1`, the pIC50 with A2780 cells (SRB) is 7.87; on NAMPT (NAMPT enzymatic assay), 8.57.

`CCCOc1ccc(S(=O)(=O)c2ccc(CNC(=O)c3ccc4nccn4c3)cc2)c(C)c1`: the pIC50 in the assay with A2780 cells (SRB) was 7.88; on NAMPT (NAMPT enzymatic reaction) it was 8.04.

As to `CCOc1ccccc1S(=O)(=O)c1ccc(CNC(=O)c2cnc3nccn3c2)cc1`, the results for the pIC50 in the assay with A2780 cells (SRB) and on NAMPT (NAMPT enzymatic reaction) were 8.15 and 9.00, respectively.

For the molecule `O=C(NCc1ccc(S(=O)(=O)c2ccccc2)cc1)N1CCc2ncncc2C1` [N-{[4-(benzenesulfonyl)phenyl]methyl}-5H,6H,7H,8H-pyrido[4,3-d]pyrimidine-6-carboxamide], the pIC50 in the assay on A2780 cells (SRB assay) and on NAMPT (NAMPT enzymatic reaction) was less than 5.70 throughout.

Take `O=C(NCc1ccc(S(=O)(=O)c2ccc(N3CCOCC3)cc2)cc1)c1ccc2nccn2c1`: the pIC50 was 9.05 with A2780 cells (SRB) and 8.46 on NAMPT (NAMPT enzymatic assay).

In the case of `CCOc1cc(Cl)ccc1S(=O)(=O)c1ccc(CNC(=O)c2cc3ccncc3o2)cc1`, the figures for the pIC50 in the assay with A2780 cells (SRB) and at NAMPT (NAMPT enzymatic reaction) were 8.29 and 8.14, respectively.

For `Cc1ccc(Cl)cc1S(=O)(=O)c1ccc(CNC(=O)c2cc3ccncc3s2)cc1`, the pIC50 in the assay with A2780 cells (SRB) was 8.18; on NAMPT (NAMPT enzymatic reaction) it was 8.32.

With `O=C(NCc1ccc(S(=O)(=O)c2csc(-c3cccc(F)c3)n2)cc1)c1cnc2nccn2c1` [N-({4-[2-(3-fluorophenyl)-1,3-thiazole-4-sulfonyl]phenyl}methyl)imidazo[1,2-a]pyrimidine-6-carboxamide], the pIC50 in the assay on A2780 cells (SRB) was 8.16; on NAMPT (NAMPT enzymatic assay) it was 9.00.

Turning to `O=C(NCc1ccc(S(=O)(=O)c2cc(F)ccc2CO)cc1)c1cc2cnccc2[nH]1`, the pIC50 is 7.17 in the assay with A2780 cells (SRB) and 7.77 on NAMPT (NAMPT enzymatic assay).

Turning to `CCc1cccc(S(=O)(=O)c2ccc(CNC(=O)c3cc4ccncc4s3)cc2)c1` [N-({4-[(3-ethylbenzene)sulfonyl]phenyl}methyl)thieno[2,3-c]pyridine-2-carboxamide], the pIC50 in the assay with A2780 cells (SRB assay) was 8.57; on NAMPT (NAMPT enzymatic reaction) it was 8.22.

Take `O=C(NCc1ccc(S(=O)(=O)c2ccc(-c3ccccc3)cc2)cc1)c1cnc2[nH]ncc2c1`: the pIC50 was 7.93 in the assay with A2780 cells (SRB) and 7.49 at NAMPT (NAMPT enzymatic reaction).

Take `COc1cc(Cl)cc(S(=O)(=O)c2ccc(CNC(=O)c3cnc4nccn4c3)cc2)c1`: the pIC50 was 9.10 in the assay on A2780 cells (SRB) and 8.89 on NAMPT (NAMPT enzymatic reaction).

For `O=C(NCc1ccc(S(=O)(=O)c2cccc(Cl)c2)cc1)c1cnc2[nH]ncc2c1` [N-({4-[(3-chlorobenzene)sulfonyl]phenyl}methyl)-1H-pyrazolo[3,4-b]pyridine-5-carboxamide], the pIC50 was 8.22 in the assay on A2780 cells (SRB) and 8.15 on NAMPT (NAMPT enzymatic reaction).

For `O=C(NCc1ccc(S(=O)(=O)c2cccc(F)c2Cl)cc1)c1cnc2[nH]ncc2c1`, the pIC50 with A2780 cells (SRB) was 6.00 to 7.00; on NAMPT (NAMPT enzymatic reaction), 7.13.

As to `COc1cc(F)ccc1S(=O)(=O)c1ccc(CNC(=O)c2cc3ccncc3s2)cc1` [N-({4-[(4-fluoro-2-methoxybenzene)sulfonyl]phenyl}methyl)thieno[2,3-c]pyridine-2-carboxamide], the figures for the pIC50 in the assay with A2780 cells (SRB assay) and on NAMPT (NAMPT enzymatic reaction) were 8.19 and 8.05, respectively.

Consider `O=C(NCc1ccc(S(=O)(=O)c2cccc3c2OCO3)cc1)c1ccc2nccn2c1` [N-{[4-(2H-1,3-benzodioxole-4-sulfonyl)phenyl]methyl}imidazo[1,2-a]pyridine-6-carboxamide], for which the results for the pIC50 in the assay on A2780 cells (SRB) and at NAMPT (NAMPT enzymatic assay) were 7.89 and 8.15, respectively.

For `Cc1ccncc1S(=O)(=O)c1ccc(CNC(=O)c2ccc3nccn3c2)cc1` [N-{[4-(4-methylpyridine-3-sulfonyl)phenyl]methyl}imidazo[1,2-a]pyridine-6-carboxamide], the pIC50 with A2780 cells (SRB) and on NAMPT (NAMPT enzymatic assay) was 7.18 throughout.

With `CCCCOc1cccc(F)c1S(=O)(=O)c1ccc(CNC(=O)c2cc3cnccc3[nH]2)cc1`, the pIC50 with A2780 cells (SRB) was 8.25; on NAMPT (NAMPT enzymatic reaction), 8.06.

Turning to `O=C(NCc1ccc(S(=O)(=O)c2ccc(C(F)(F)F)c(Cl)c2)cc1)c1cnc2nccn2c1`, the pIC50 with A2780 cells (SRB) is 8.74; on NAMPT (NAMPT enzymatic assay) it was 8.55.

Turning to `O=C(NCc1ccc(S(=O)(=O)c2ccccc2Oc2ccccc2)cc1)c1cnc2[nH]ncc2c1` [N-({4-[(2-phenoxybenzene)sulfonyl]phenyl}methyl)-1H-pyrazolo[3,4-b]pyridine-5-carboxamide], the pIC50 with A2780 cells (SRB) and at NAMPT (NAMPT enzymatic reaction) was 6.00 to 7.00 throughout.

For `COc1ccc(Cl)cc1NS(=O)(=O)c1ccc(CNC(=O)c2cc3cnccc3[nH]2)cc1` [N-({4-[(5-chloro-2-methoxyphenyl)sulfamoyl]phenyl}methyl)-1H-pyrrolo[3,2-c]pyridine-2-carboxamide], the pIC50 is 4.75 with A2780 cells (SRB assay) and 6.71 at NAMPT (NAMPT enzymatic reaction).

In the case of `COc1ccc(C(C)(C)C)cc1S(=O)(=O)c1ccc(CNC(=O)c2cnc3[nH]ncc3c2)cc1`, the values for the pIC50 in the assay with A2780 cells (SRB) and on NAMPT (NAMPT enzymatic assay) were 7.67 and 7.34, respectively.

Regarding `Cc1cc(S(=O)(=O)c2ccc(CNC(=O)c3ccc4nccn4c3)cc2)c(C)cc1F`, the pIC50 with A2780 cells (SRB) was 7.96; on NAMPT (NAMPT enzymatic reaction) it was 7.36.

With `O=C(NCc1ccc(S(=O)(=O)c2cnc3ccc(Cl)cn23)cc1)c1cnc2nccn2c1` [N-[(4-{6-chloroimidazo[1,2-a]pyridine-3-sulfonyl}phenyl)methyl]imidazo[1,2-a]pyrimidine-6-carboxamide], the pIC50 in the assay with A2780 cells (SRB) was 9.40; on NAMPT (NAMPT enzymatic assay) it was 8.80.

For the molecule `COc1ccc(OC)c(S(=O)(=O)c2ccc(CNC(=O)c3cnc4nccn4c3)cc2)c1` [N-({4-[(2,5-dimethoxybenzene)sulfonyl]phenyl}methyl)imidazo[1,2-a]pyrimidine-6-carboxamide], the values for the pIC50 in the assay on A2780 cells (SRB) and at NAMPT (NAMPT enzymatic reaction) were 7.34 and 8.16, respectively.

On to `COc1cc(-n2cccn2)ccc1S(=O)(=O)c1ccc(CNC(=O)c2cnc3[nH]ncc3c2)cc1`, for which the pIC50 is 8.03 with A2780 cells (SRB) and 7.62 on NAMPT (NAMPT enzymatic assay).

Consider `Cc1ccc(S(=O)(=O)c2ccc(CNC(=O)c3cnc4nccn4c3)cc2)cc1Cl`, for which the pIC50 was 8.92 in the assay on A2780 cells (SRB) and 8.74 on NAMPT (NAMPT enzymatic reaction).

For `O=C(NCc1ccc(S(=O)(=O)c2cnc3n2CCCCC3)cc1)c1cc2ccncc2o1` [N-[(4-{5H,6H,7H,8H,9H-imidazo[1,2-a]azepine-3-sulfonyl}phenyl)methyl]furo[2,3-c]pyridine-2-carboxamide], the pIC50 with A2780 cells (SRB) was 8.24; on NAMPT (NAMPT enzymatic assay), 8.22.

As for `O=C(NCc1ccc(S(=O)(=O)c2ccc3ncccc3c2)cc1)c1cnc2nccn2c1` [N-{[4-(quinoline-6-sulfonyl)phenyl]methyl}imidazo[1,2-a]pyrimidine-6-carboxamide], the pIC50 with A2780 cells (SRB) was 8.25; at NAMPT (NAMPT enzymatic assay) it was 8.48.

For the molecule `CCCOc1cccc(S(=O)(=O)c2ccc(CNC(=O)c3cc4ccncc4o3)cc2)c1`, the pIC50 with A2780 cells (SRB) is 7.60; on NAMPT (NAMPT enzymatic reaction) it was 8.00.
